Assay results published in the supplement of paper PMC11451515.

Tested on: SEM cells
Assay: cell viability relative to DMSO control; higher = less cytotoxic
Conditions: 48 h
In short: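 Viability values are per-plate percentages of DMSO wells, with background from cell-free wells. Library compounds in DMSO were pin-dosed, in an 11-point threefold series from 47 μM to 0.79 nM, onto NOMO1 or SEM (500 cells/well) or P12-Ichikawa (1000 cells/well) leukemia cells in 1536-well plates (5 μl). Those cells had been adapted for at least four passages in each medium, and CellTiter-Glo One luminescence was read after 48 h at 37°C.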

[1] = HPLM + 10% dialyzed FBS, 0.000781 µM
[2] = HPLM + 10% dialyzed FBS, 0.00234 µM
[3] = HPLM + 10% dialyzed FBS, 0.00702 µM
[4] = HPLM + 10% dialyzed FBS, 0.0211 µM
[5] = HPLM + 10% dialyzed FBS, 0.0632 µM
[6] = HPLM + 10% dialyzed FBS, 0.19 µM
[7] = HPLM + 10% dialyzed FBS, 0.569 µM
[8] = HPLM + 10% dialyzed FBS, 1.71 µM
[9] = HPLM + 10% dialyzed FBS, 5.12 µM
[10] = HPLM + 10% dialyzed FBS, 15.4 µM
[11] = HPLM + 10% dialyzed FBS, 46.1 µM
[12] = RPMI 5 mM glucose + 10% FBS, 0.000781 µM
[13] = RPMI 5 mM glucose + 10% FBS, 0.00234 µM
[14] = RPMI 5 mM glucose + 10% FBS, 0.00702 µM
[15] = RPMI 5 mM glucose + 10% FBS, 0.0211 µM
[16] = RPMI 5 mM glucose + 10% FBS, 0.0632 µM
[17] = RPMI 5 mM glucose + 10% FBS, 0.19 µM
[18] = RPMI 5 mM glucose + 10% FBS, 0.569 µM
[19] = RPMI 5 mM glucose + 10% FBS, 1.71 µM
[20] = RPMI 5 mM glucose + 10% FBS, 5.12 µM
[21] = RPMI 5 mM glucose + 10% FBS, 15.4 µM
[22] = RPMI 5 mM glucose + 10% FBS, 46.1 µM
[23] = RPMI 5 mM glucose + 10% dialyzed FBS, 0.000781 µM
[24] = RPMI 5 mM glucose + 10% dialyzed FBS, 0.00234 µM
[25] = RPMI 5 mM glucose + 10% dialyzed FBS, 0.00702 µM
[26] = RPMI 5 mM glucose + 10% dialyzed FBS, 0.0211 µM
[27] = RPMI 5 mM glucose + 10% dialyzed FBS, 0.0632 µM
[28] = RPMI 5 mM glucose + 10% dialyzed FBS, 0.19 µM
[29] = RPMI 5 mM glucose + 10% dialyzed FBS, 0.569 µM
[30] = RPMI 5 mM glucose + 10% dialyzed FBS, 1.71 µM
[31] = RPMI 5 mM glucose + 10% dialyzed FBS, 5.12 µM
[32] = RPMI 5 mM glucose + 10% dialyzed FBS, 15.4 µM
[33] = RPMI 5 mM glucose + 10% dialyzed FBS, 46.1 µM

| Compound | cell viability [1] | cell viability [2] | cell viability [3] | cell viability [4] | cell viability [5] | cell viability [6] | cell viability [7] | cell viability [8] | cell viability [9] | cell viability [10] | cell viability [11] | cell viability [12] | cell viability [13] | cell viability [14] | cell viability [15] | cell viability [16] | cell viability [17] | cell viability [18] | cell viability [19] | cell viability [20] | cell viability [21] | cell viability [22] | cell viability [23] | cell viability [24] | cell viability [25] | cell viability [26] | cell viability [27] | cell viability [28] | cell viability [29] | cell viability [30] | cell viability [31] | cell viability [32] | cell viability [33] |
| --- | --- | --- | --- | --- | --- | --- | --- | --- | --- | --- | --- | --- | --- | --- | --- | --- | --- | --- | --- | --- | --- | --- | --- | --- | --- | --- | --- | --- | --- | --- | --- | --- | --- |
| CCC[S+]([O-])c1ccc2[nH]c(NC(=O)OC)nc2c1 (configuration not stated) | 78.9% | 96.2% | 111% | 86.7% | 100% | 105% | 83.1% | 94.9% | 94.6% | 38.2% | 33.4% | 74.9% | 99.4% | 100% | 99.3% | 114% | 93.9% | 82% | 84.9% | 91.8% | 24.4% | 32.2% | 72.7% | 99.8% | 95.9% | 109% | 101% | 113% | 83.1% | 105% | 98.6% | 23.2% | 17.3% |
| N[S+]([O-])(=O)C1=CC=C(NC/2=C/C(=O)C3=CC=CC=C3C2=O)C=C1 | 97.3% | 106% | 109% | 108% | 115% | 110% | 123% | 110% | 82.6% | 97.8% | 71.3% | 96.2% | 103% | 99.4% | 98.6% | 87.5% | 83.9% | 92.2% | 92.5% | 53.4% | 57.2% | 46.3% | 122% | 74.4% | 108% | 105% | 106% | 120% | 103% | 108% | 71.3% | 85.3% | 50.7% |
| C[C@H](NC(=O)c1sccc1OCc1ccc(Cl)cc1)c1ccccc1 | 98.8% | 94.4% | 82.9% | 88.2% | 94.8% | 83.4% | 91.1% | 92.5% | 69.5% | 80.1% | 51% | 96.9% | 90.9% | 92.5% | 106% | 112% | 95.6% | 85.1% | 112% | 73.3% | 115% | 20.4% | 107% | 97.3% | 94.7% | 94.1% | 101% | 101% | 97.9% | 101% | 70.1% | 99.6% | 59.3% |
| COc1ccc(-c2ccc3ncc4c(c3c2)n(-c2ccc(N3CCNCC3)c(C(F)(F)F)c2)c(=O)n4C)cn1 | 72.5% | 65.5% | 54.5% | 44.2% | 37.2% | 31.8% | 31.2% | 4.63% | 4.31% | 3.49% | 2.31% | 95.8% | 77.7% | 60.3% | 55.9% | 45.1% | 23.6% | 21.5% | 5.49% | 5.48% | 3.64% | 2.49% | 70% | 73.5% | 54.5% | 46.5% | 46% | 25.1% | 18.4% | 5.55% | 5.1% | 3.87% | 2.59% |
| CN(C)[S+](=O)([O-])c1ccc2c(c1)C(=Cc1cc3c([nH]1)CCCC3)C(=O)N2 | 112% | 115% | 112% | 114% | 128% | 129% | 130% | 116% | 114% | 85.7% | 111% | 90.5% | 98.6% | 109% | 103% | 118% | 113% | 118% | 113% | 112% | 78.5% | 94.7% | 116% | 115% | 127% | 120% | 120% | 108% | 132% | 123% | 113% | 72.9% | 116% |
| COC(=O)Nc1cc(Nc2cc(NC3CC3)c3ncc(C#N)n3n2)c(Cl)c(N2CCN(C)CC2)c1 | 97.9% | 103% | 98.7% | 98.5% | 98% | 102% | 86.5% | 77.7% | 37.9% | 5.22% | 4.93% |  |  |  |  |  |  |  |  |  |  |  | 113% | 122% | 110% | 109% | 103% | 95% | 84.4% | 61.9% | 29.9% | 5.89% | 5.24% |
| Cc1ccccc1C(=O)c1ccc(Nc2ccc(Br)cc2N)cc1Cl |  |  |  |  |  |  |  |  |  |  |  | 96% | 106% | 97.7% | 17.3% | 109% | 123% | 112% | 107% | 106% | 83.2% | 18.2% | 117% | 121% | 123% | 21.4% | 112% | 102% | 116% | 110% | 122% | 86.3% | 21.4% |
| O=C1[C@H](Cc2ccc(O)cc2)N2C(=O)CCN(C(=O)NCc3ccccc3)[C@H]2CN1Cc1cccc2ccccc12 | 51.6% | 86.6% | 103% | 93.6% | 77% | 74.3% | 77.4% | 62.8% | 64.8% | 12.3% | 51.3% | 64.9% | 108% | 99.7% | 98.1% | 76.7% | 93.6% | 86.2% | 83.9% | 78.6% | 15.2% | 65.6% | 55.1% | 101% | 94.7% | 95% | 83% | 93.3% | 74.1% | 73.8% | 73.3% | 15.3% | 63.2% |
